# Tests used:
# [1] = tested on: KB; assay: Cytotoxicity against human KB cells; type: functional, cell-based
# [2] = tested on: L1210; assay: Cytotoxicity against mouse L1210 cells; type: functional, cell-based
compound,measurement,setting,value
C=C(C)[C@H](C)/C=C/[C@@H](C)[C@H]1CC[C@H]2C3=C[C@@H](O)[C@@]4(O)C[C@@H](O)CC[C@]4(C)[C@H]3CC[C@]12C [BIEMNASTEROL],IC50,[1],1.3 µg/mL
same,IC50,[2],3 µg/mL

# From ChEMBL document CHEMBL1147397, “Biemnasterol, a new cytotoxic sterol with the rare 22,25-diene side chain, isolated from the marine sponge Biemna sp” (J Nat Prod, 1993)
